By minimal effective concentration is commonly meant the smallest amount tested that counted as effective.

For one series, the system named is OC-bearing mice. Briefly: Ovarian cancer (ID8-luc2)-induced anorexia model. The note with it: 0.05 mg/mouse once a week i.p. It is filed as in vivo. The source says: Furthermore, the present studies use the luciferase-expressing mouse ovarian surface epithelial cancer cell line ID8-luc2 (Liao J B et al., 2015, J Immunother Cancer, 3:16) that was originally derived from C57BL/6 mice (Roby K F et al., 2000, Carcinogenesis, 21:585-591). ID8-luc2 allow in vivo imaging of intraperitoneal tumors to monitor tumor growth (Udumula M P et al., 2021, Mol Metab., 53:101272; Liao J B et al., 2015, J Immunother Cancer, 3:16). Agrp-IRES-Cre::LSL-Cas9-GFP mice (C57BL/6 background) that express GFP specifically in AgRP neurons are used, hereafter called AgRP-GFP. […] Tumors were readily detected by bioluminescent imaging 10-14 days after inoculation (Udumula M P et al., 2021, Mol Metab., 53:101272; Liao J B et al., 2015, J Immunother Cancer, 3:16). Visible ascites (detected by abdominal swelling) developed at ~3 weeks following implantation (Roby K F et al., 2000, Carcinogenesis, 21:585-591). […] Bioluminescence signals of the tumor are recorded using the Xenogen IVIS system. Food intake is monitored manually on a daily basis and energy expenditure is measured using a computer-controlled indirect calorimetry system.
Additional studies test whether Bobcat339 alleviates OC-induced anorexia and hypermetabolism. […] Food intake are monitored daily and energy expenditure are determined once a week for three weeks before euthanasia. […]

The test system of series [1] is TET3. The note with it: Lv et al., 2023; cited from earlier work.
Series [2] relates to TET3. Put plainly: TET3 protein in SH-SY5Y human neuronal cells. The format is cell-based. The source says: Mouse GT1-7 hypothalamic neuronal cell line (Sigma-Aldrich, SCC116) and human SH-SY5Y neuroblastoma cell line (Sigma Aldrich, 94030304) were purchased and cultured according to the manufacturers' instructions. Purified Ad-TET3 adenovirus (Ad-FLAG.h-TET3, ADV-225322, Vector Biolabs) expressing human TET3 from a CMV promoter and Ad-GFP control adenovirus (1060, Vector Biolabs) were purchased.
For Bobcat339 treatment (FIG. 15A and FIG. 15B), GT1-7 cells grown in 24-well plates at 2×10^5 cells/well were incubated with vehicle or Bobcat339 at a final concentration of 10 μM for 6 h, followed by RNA and protein extractions. For TET3 protein stability assay (FIG. 15B), GT1-7 cells in 24-well plates at 2×10^5 cells/well were incubated with vehicle or Bobcat339 at a final concentration of 10 μM for 3 hours, followed by addition of cycloheximide (CHX, Cell Signaling, 2112) at a final concentration of […] in the presence of 10 μM of Bobcat339. Proteins were harvested at 0, 1, 2, and 3 hours after addition of CHX. For TET3 expression restoration experiments (FIG. 15C and FIG. 15D), GT1-7 or SH-SY5Y cells seeded in 24-well plates at 2×10^5 cells/well were infected with Ad-GFP or Ad-TET3 at 4000 gc/cell. Following 16 h of infection, vehicle or Bobcat339 were added at a final concentration of 10 μM. Protein and RNA were isolated 48 h later and analyzed. […]

For series [3] the following is noted: dosage and administration regimes used; cited from earlier work.
The next series deals with Bcl2l11, Bid and Pmaip1. Put plainly: Pro-apoptosis gene expression in mouse peritoneal macrophages. It is filed as cell-based. The note with it: TGF-b1 primed mouse peritoneal macrophages, 10 μM, 48 h. The procedure: For cultured mouse peritoneal macrophages, cells were primed with 30 ng/ml of TGF-β1 (R&D Systems, 7666-MB0-005) for 48 h (to increase TET3 expression) before Bobcat339 treatment. Bobcat339 (or DMSO) was added at a final concentration of 10 μM, followed by RNA and protein extraction at time points indicated in the figure legends.
Total RNAs were extracted from cells using PureLink RNA Mini Kit. 0.5-1 μg total RNA was reverse transcribed to cDNA in a reaction volume of 20 μL using PrimeScript RT Reagent Kit. Real-time quantitative PCR was performed in a 15 μL reaction volume containing 0.5-1 μL of cDNA using SsoAdvanced Universal SYBR Green Supermix in a Bio-Rad iCycler. Gene expression levels were normalized against RPLP0.

For `Nc1nc(=O)n(-c2cccc(-c3ccccc3)c2)cc1Cl` [Bobcat339, 4-Amino-1-[1,1′-biphenyl]-3-yl-5-chloro-2(1H)-pyrimidinone], in the series with OC-bearing mice, the OC progression entry was “decreased OC progression”; the “cancer anorexia and hypermetabolism” value was “not only prevents cancer anorexia and hypermetabolism from developing but eliminates it after it is established”. Also, the minimal effective concentration in the series on TET3 [1] was 10 µM. In addition, in the series on TET3 [2], the “TET3 protein level / degradation” value is on record as “induced protein degradation of TET3”. The adverse pathology entry in series [3] is recorded as “minimal adverse pathology”. Also, in the series with Bcl2l11, Bid and Pmaip1, the “Bcl2l11, Bid and Pmaip1 expression” value was “an upregulation of all three pro-apoptosis genes”.

The values above are taken from patent US20260355199A1, “COMPOSITIONS AND METHODS FOR TREATING OR PREVENTING NONALCOHOLIC STEATOHEPATITIS (NASH), ANOREXIA, DEPRESSION, ENDOMETRIOSIS, AND OTHER DISEASES OR DISORDERS” (priority 2022, published 2026).
